Measured values published in ChEMBL document CHEMBL1201862, “PubChem BioAssay data set” (2004).
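Compound exposure: 48 hours, 5 concentrations, 96-well plates. GI50: concentration for 50% inhibition of growth.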 Calls of active or inactive are those of the source. Cut-off read from the data, not from the text of the source: active = GI50 up to about 1.1 µM and inactive = higher.

What was measured:
Assay in all cases: NCI-60 cell line screen, 48 h
RPMI-8226 = tested on: RPMI-8226
U-251 = tested on: U-251
SNB-19 = tested on: SNB-19
SR = tested on: SR
MDA-MB-435 = tested on: MDA-MB-435
NCI-H460 = tested on: NCI-H460
UACC-257 = tested on: UACC-257
K562 = tested on: K562
NCI-H522 = tested on: NCI-H522
HOP-92 = tested on: HOP-92
NCI-H226 = tested on: NCI-H226
KM12 = tested on: KM12
SK-MEL-28 = tested on: SK-MEL-28
A549 = tested on: A549
SK-OV-3 = tested on: SK-OV-3
M14 = tested on: M14
MDA-MB-231 = tested on: MDA-MB-231
IGROV-1 = tested on: IGROV-1
MOLT-4 = tested on: MOLT-4
OVCAR-3 = tested on: OVCAR-3

Measured: GI50

O=C(O)[C@@H]1CCC(=O)N1C(c1ccc2c(c1)OCO2)c1ccc2c(c1)OCO2
inactive: RPMI-8226 > 100 µM | U-251 > 100 µM | SNB-19 > 100 µM | SR > 100 µM | MDA-MB-435 > 100 µM | NCI-H460 > 100 µM | UACC-257 > 100 µM | K562 > 100 µM | NCI-H522 > 100 µM | HOP-92 > 100 µM | NCI-H226 > 100 µM | KM12 > 100 µM | SK-MEL-28 > 100 µM | A549 > 100 µM | SK-OV-3 > 10 µM | M14 > 100 µM | MDA-MB-231 > 100 µM | IGROV-1 > 100 µM | MOLT-4 > 100 µM | OVCAR-3 > 100 µM

C=C[C@@]1(C)CC2(C=C(CO)C(O)O2)Oc2c1c(=O)oc1cccc(C)c21 (stereo not given in full)
inactive: U-251 10.9 µM | SNB-19 16.7 µM | SR 2.4 µM | MDA-MB-435 3.57 µM | NCI-H460 19.8 µM | UACC-257 14.7 µM | K562 2.23 µM | NCI-H522 2.33 µM | HOP-92 20.2 µM | NCI-H226 17.9 µM | KM12 18.3 µM | SK-MEL-28 7.74 µM | A549 31 µM | SK-OV-3 24.4 µM | M14 3.52 µM | MDA-MB-231 10.5 µM | IGROV-1 13.8 µM | MOLT-4 2.1 µM | OVCAR-3 3.16 µM
active: RPMI-8226 0.822 µM

C#CC1(O)C(COP(=O)(O)OCC2OC(n3ccc(NCCCCCCCCCCCCCCCCCC)nc3=O)C(O)C2O)OC(n2ccc(N)nc2=O)C1O (stereo not given)
inactive: SNB-19 2.71 µM | UACC-257 4.05 µM | HOP-92 21.2 µM | SK-MEL-28 1.78 µM | SK-OV-3 8.13 µM | OVCAR-3 2.59 µM
active: RPMI-8226 0.142 µM | U-251 0.959 µM | SR < 0.0124 µM | MDA-MB-435 0.575 µM | NCI-H460 0.0519 µM | K562 0.278 µM | NCI-H522 0.032 µM | NCI-H226 0.757 µM | KM12 0.836 µM | A549 0.0525 µM | M14 0.254 µM | MDA-MB-231 1.03 µM | IGROV-1 0.218 µM | MOLT-4 0.418 µM

CCCc1nnc2sc(COc3ccc(OCc4nn5c(CCC)nnc5s4)c(Cl)c3)nn12
inactive: RPMI-8226 19.5 µM | U-251 38.2 µM | SNB-19 33.8 µM | SR 17.8 µM | MDA-MB-435 20.5 µM | NCI-H460 23.3 µM | UACC-257 20.3 µM | K562 32.1 µM | NCI-H522 21.1 µM | HOP-92 20.4 µM | NCI-H226 > 100 µM | KM12 31 µM | SK-MEL-28 26.1 µM | A549 27.5 µM | SK-OV-3 36.6 µM | M14 21.9 µM | MDA-MB-231 36.1 µM | IGROV-1 24.9 µM | MOLT-4 24.9 µM | OVCAR-3 26 µM

CCOC(=O)C(Cc1c2ccccc2cc2ccccc12)(NC(C)=O)C(=O)OCC
inactive: RPMI-8226 > 100 µM | U-251 > 80.5 µM | SNB-19 > 78.5 µM | SR 70.5 µM | MDA-MB-435 > 72.4 µM | NCI-H460 > 100 µM | UACC-257 > 100 µM | K562 > 69.8 µM | NCI-H522 64 µM | HOP-92 14.2 µM | NCI-H226 62.1 µM | KM12 97.7 µM | SK-MEL-28 > 100 µM | A549 > 72.8 µM | SK-OV-3 > 100 µM | M14 > 75.9 µM | MDA-MB-231 > 23.1 µM | IGROV-1 > 45 µM | MOLT-4 25.8 µM | OVCAR-3 > 64.7 µM

C1=N\CCN2CCN(CC/N=C\c3ccc(cc3)OCc3cccc(n3)COc3ccc/1cc3)CC2
inactive: RPMI-8226 > 50 µM | U-251 > 50 µM | SNB-19 > 50 µM | SR > 50 µM | MDA-MB-435 > 50 µM | NCI-H460 > 50 µM | UACC-257 > 50 µM | K562 > 50 µM | NCI-H522 > 50 µM | HOP-92 40.4 µM | NCI-H226 > 50 µM | KM12 > 50 µM | SK-MEL-28 > 50 µM | A549 > 50 µM | SK-OV-3 > 50 µM | M14 > 50 µM | MDA-MB-231 > 50 µM | IGROV-1 > 50 µM | MOLT-4 > 50 µM | OVCAR-3 28.8 µM

C[C@@H]1C[C@H](O)[C@]2(O)O[C@@H]3C[C@@]4(C=O)[C@@H](CC=C5[C@@H]4CC[C@]4(C)[C@@H](C6=CC(=O)OC6)CC[C@]54O)C[C@H]3O[C@@H]2O1
active: RPMI-8226 < 0.018 µM | U-251 < 0.0214 µM | SNB-19 0.218 µM | SR < 0.015 µM | MDA-MB-435 0.0332 µM | NCI-H460 < 0.0129 µM | UACC-257 0.0702 µM | K562 < 0.0231 µM | NCI-H522 < 0.01 µM | HOP-92 0.0277 µM | NCI-H226 < 0.0191 µM | KM12 0.0337 µM | SK-MEL-28 0.128 µM | A549 < 0.0109 µM | SK-OV-3 0.0426 µM | M14 0.0574 µM | MDA-MB-231 0.144 µM | IGROV-1 < 0.0118 µM | MOLT-4 < 0.01 µM | OVCAR-3 0.0131 µM

COc1cc(OC(=O)c2ccccc2)cc2c1C(=O)C=CC2=O
inactive: RPMI-8226 2.93 µM | U-251 16.4 µM | SNB-19 30.6 µM | MDA-MB-435 5.65 µM | NCI-H460 34.2 µM | UACC-257 16.2 µM | K562 1.88 µM | NCI-H522 5.31 µM | HOP-92 2.16 µM | NCI-H226 28.4 µM | KM12 15.1 µM | SK-MEL-28 18.2 µM | A549 36.2 µM | SK-OV-3 20 µM | M14 14.4 µM | MDA-MB-231 2.29 µM | IGROV-1 15.1 µM | MOLT-4 1.73 µM | OVCAR-3 5.32 µM
active: SR 0.469 µM

COC(=O)C1(Cc2cccc(C)c2)Cc2c(C)cccc2C1=O (stereo not given)
inactive: RPMI-8226 > 100 µM | U-251 38.7 µM | SNB-19 98.9 µM | SR > 100 µM | MDA-MB-435 14.1 µM | NCI-H460 45.4 µM | UACC-257 82.8 µM | K562 35.9 µM | NCI-H522 22.6 µM | HOP-92 30.4 µM | NCI-H226 44.9 µM | KM12 28.1 µM | SK-MEL-28 > 100 µM | A549 38.6 µM | SK-OV-3 58.6 µM | M14 34.4 µM | MDA-MB-231 52.8 µM | IGROV-1 46.9 µM | MOLT-4 36.8 µM | OVCAR-3 24.5 µM

O=C1C=C/C(=N/c2cccc3c(/N=C4/C=CC(=O)O4)cccc23)O1
inactive: RPMI-8226 23.1 µM | U-251 > 100 µM | SNB-19 > 100 µM | SR 19.8 µM | MDA-MB-435 44.5 µM | NCI-H460 > 100 µM | UACC-257 22.3 µM | K562 21.2 µM | NCI-H522 18.7 µM | HOP-92 42.7 µM | NCI-H226 > 100 µM | KM12 > 100 µM | SK-MEL-28 28.3 µM | A549 > 100 µM | SK-OV-3 > 100 µM | M14 29.2 µM | MDA-MB-231 69.5 µM | IGROV-1 58.5 µM | MOLT-4 3.72 µM | OVCAR-3 51.6 µM

CCCc1cn2c(/C=N/N=C(N)N)c(-c3c(OC)ccc(OC)c3[N+](=O)[O-])nc2s1
inactive: RPMI-8226 2.54 µM | U-251 4.74 µM | SNB-19 18.4 µM | SR 2.03 µM | MDA-MB-435 5.42 µM | NCI-H460 12.3 µM | UACC-257 7.08 µM | K562 3.44 µM | NCI-H522 8.79 µM | HOP-92 12.5 µM | NCI-H226 11.4 µM | KM12 3.16 µM | SK-MEL-28 4.84 µM | A549 19.4 µM | SK-OV-3 18.1 µM | M14 7.08 µM | MDA-MB-231 4.07 µM | IGROV-1 9.89 µM | MOLT-4 1.94 µM | OVCAR-3 4.69 µM

Clc1cc(Cl)nc(Nc2ccc3c(c2)CCC3)n1
inactive: RPMI-8226 16.5 µM | U-251 62.5 µM | SNB-19 89.5 µM | SR 30.3 µM | MDA-MB-435 58.5 µM | NCI-H460 30.4 µM | UACC-257 42 µM | K562 20.6 µM | NCI-H522 2.54 µM | HOP-92 32.8 µM | NCI-H226 45 µM | KM12 21.4 µM | SK-MEL-28 37.7 µM | A549 32.6 µM | SK-OV-3 > 100 µM | M14 42.9 µM | MDA-MB-231 51.3 µM | IGROV-1 16 µM | MOLT-4 13.8 µM | OVCAR-3 32 µM

COc1ccc(/[N+]([O-])=C/c2ccc(OC(=S)S)c(OC)c2)cc1
inactive: RPMI-8226 30.3 µM | U-251 36.2 µM | SNB-19 43.6 µM | SR 15.6 µM | MDA-MB-435 9.46 µM | NCI-H460 > 100 µM | UACC-257 > 100 µM | K562 21.7 µM | NCI-H522 25.8 µM | HOP-92 23.2 µM | NCI-H226 65.6 µM | KM12 8.39 µM | SK-MEL-28 52.2 µM | A549 40.6 µM | SK-OV-3 47.1 µM | M14 46.8 µM | MDA-MB-231 > 100 µM | IGROV-1 39.3 µM | MOLT-4 33 µM | OVCAR-3 43.9 µM

COc1cc2c(c(OC)c1OC)-c1ccc(SC)cc1[C@H](OC(=O)c1ccccc1)CC2
active: RPMI-8226 0.0424 µM | U-251 0.071 µM | SNB-19 0.0828 µM | SR 0.0247 µM | MDA-MB-435 0.0168 µM | NCI-H460 0.149 µM | K562 0.0849 µM | NCI-H522 0.0324 µM | HOP-92 0.286 µM | NCI-H226 0.237 µM | KM12 0.0488 µM | SK-MEL-28 0.0571 µM | A549 0.123 µM | M14 0.0519 µM | MDA-MB-231 0.284 µM | IGROV-1 0.145 µM | MOLT-4 0.151 µM | OVCAR-3 0.199 µM
inactive: UACC-257 > 100 µM | SK-OV-3 5.04 µM
